Assay [1] deals with C. albicans, strain 820. Nature of the assay: radial diffusion assay in agarose gels. The class given is cell-based. Particulars: for inhibitory activity (FIG. 4c): at reasonable concentrations; for minimal microbicidal concentration: Table 2. The protocol:
(§1) Aliquots (66 μl) of each fraction were dried by vacuum centrifugation, and resuspended in approximately 6.6 μl of 0.01% acetic acid. Five μl samples of this concentrate were tested for antimicrobial activity against E. coli ML-35, L. monocytogenes, Strain EGD and C. albicans, strain 820 by radial diffusion and gel overlay techniques (Lehrer, R. I. et al. J Immunol Meth (1991) 137:167-173). Active fractions were further examined by acid-urea PAGE and SDS-PAGE. Prophenins emerged from the P10 column in fractions 38-43 (39.6 ml total volume), which contained a total of 18 mg protein by BCA analysis.
(§2) The radial diffusion assay in agarose gels as described above was also used to test the activity of the purified prophenins. Samples of 5 μL each were added to 3 mm wells in thin gels composed of 10 mM sodium phosphate, 30 mg/ml trypticase soy broth powder in 1% agarose and containing approximately 4×10^5 CFU/ml of mid-log phase organisms. After allowing 3 hours for the samples to diffuse into the underlayer gel, a nutrient-rich overlay gel was poured and the plates were incubated for 24 hours at 37° C. to allow surviving organisms to form microcolonies. The diameters of the clear zones were measured and expressed in "units" (10 units=1 mm) as. described previously.

The subject of assay [2] is L. monocytogenes, Strain EGD. Nature of the assay: radial diffusion assay in agarose gels. The class given is cell-based. Particulars: for minimal microbicidal concentration: Table 2. As for the experimental part:
as §1, §2

Assay [3] deals with E. coli ML-35. Nature of the assay: radial diffusion assay in agarose gels. To be noted: for minimal microbicidal concentration: E. coli, Table 2; for inhibitory activity (FIG. 4a): E. coli ML-35. The class given is cell-based. The protocol:
as §1, §2

Assay [4] has as its system lipid polysaccharide (LPS) of the Gram-negative bacterium E. coli strain 0.55B5. The assay can be described thus: Limulus amebocyte lysate (LAL) test for endotoxin binding. The class given is biochemical. Details: key to LAL gel formation: ++ signifies a solid gel (no inhibition); + indicates increased viscosity without solid gel formation (partial inhibition); 0 indicates that gelation was absent (complete inhibition). Particulars: for concentration giving complete inhibition of LAL gelation / LAL gel formation: LPS 0.05 endotoxin unit/ml; for LAL gel formation: Table 3; for concentration giving complete inhibition of LAL gelation, molar: converted from μg/ml. The protocol: The prophenins of the invention were tested for their ability to bind the lipid polysaccharide (LPS) of the Gram-negative bacterium E. coli strain 0.55B5. The assay was the Limulus amebocyte lysate (LAL) test for endotoxins conducted in the presence and absence of the test compounds. The test was conducted using the procedure described in Sigma Technical Bulletin No. 210 as revised in December 1992 and published by Sigma Chemical Company, St. Louis, Mo.
The LAL test is based on the ability of LPS to effect gelation in the commercial reagent E-TOXATE ™ which is prepared from the lysate of circulating amebocytes of the Horseshoe Crab Limulus polyphemus. As described in the technical bulletin, when exposed to minute quantities of LPS, the lysate increases in opacity as well as viscosity and may gel or clot depending on the concentration of endotoxin. The technical bulletin goes on to speculate that the mechanism appears analogous to the clotting of mammalian blood and involves the steps of activation of a trypsin-like preclotting enzymes by the LPS in the presence of calcium ion, followed by enzymic modifications of a "coagulogen" by proteolysis to produce a clottable protein. These steps are believed tied to the biologically active or "pyrogenic" portion of the molecule. It has been shown previously that detoxified LPS (or endotoxin) gives a negative LAL test.
Polymyxin B is a cyclic 1.2 kD acylated […] obtained from Bacillus polymyxa. Polymyxin B was used as a positive control since it is known to inhibit LPS-induced Limulus hemocyte lysate clotting.
In the assay, the amounts of prophenin-1 and polymyxin B (78% free polymyxin, Sigma) were preincubated in a final volume of 0.2 ml and the test mixtures contained LPS at a final concentration of 0.05 endotoxin unit/ml and E-TOXATE™ at the same concentration. The test compounds were incubated together with the LPS for 15 minutes before the E-TOXATE™ was added to a final volume (after E-TOXATE™ addition) of 0.2 ml. The tubes were then incubated for 60 minutes at 37° C. and examined for the formation of a gel.

Consider five molecules from patent US5804553A, “Prophenins - antibiotic peptides” (University of California, priority 1994, dated 1998).

Where no end group is shown, it is not given here.

Consider “HNP-1: human defensin (HNP-1), used as control”, for which the “inhibitory activity (FIG. 4c)” value in assay [1] was “substantially noninhibitory”.
“HNP-2: control peptide as headed in Table 2; the text names human defensin HNP-1 (CYCRIPACIAGERRYGTCIYQGRLWAFCC; ends and bridges not checked; cysteine pairing not given here; UniProt P59665 66-94, looked up)”: the minimal microbicidal concentration in assay [2] was 12.0 µg/mL; in assay [3], 80.0 µg/mL; in assay [1], greater than 150 µg/mL.
On to “PG-3: protegrin-3 (PG3), used as control (RGGGLCYCRRRFCVCVGR; ends and bridges not checked; cysteine pairing not given here; UniProt P32196 131-148, looked up)”, for which the minimal microbicidal concentration in assay [2] came out at 9.0 µg/mL. Further, in assay [3], the “inhibitory activity (FIG. 4a)” value is given as “more inhibitory than HNP-1” and the minimal microbicidal concentration is 8.6 µg/mL. Moreover, in assay [1], the minimal microbicidal concentration is 6.9 µg/mL and the “inhibitory activity (FIG. 4c)” value is reported as “successful antifungals”.
As for Polymyxin B, in assay [4], the “concentration giving complete inhibition of LAL gelation” value was 5 µg/mL. Further, the LAL gel formation entry in assay [4] (peptide 0.16 μg/ml) is reported as “++”; in assay [4] (peptide 0.31 μg/ml), “++”; in assay [4] (peptide 0.63 μg/ml), “++”; in assay [4] (peptide 1.25 μg/ml), “++”; in assay [4] (peptide 2.5 μg/ml) it was “+”; in assay [4] (peptide 5.0 μg/ml), 0. For the same molecule, the LAL gel formation in assay [4] (peptide 10.0 μg/ml) was determined as 0. Moreover, the “concentration giving complete inhibition of LAL gelation, molar” value in assay [4] is “≈ 4.2 μM”.

B1: Prophenin-1: 79-residue proline-rich antimicrobial peptide purified from porcine leukocytes; sequence SEQ ID NO:1 (b87-b94, FIG. 3) (peptide)
chain: AFPPPNVPGPRFPPPNFPGPRFPPPNFPGPRFPPPNFPGPRFPPPNFPGPPFPPPIFPGPWFPPPPPFRPPPFGPPRFP
Consider B1, for which, in assay [2], the “concentrations at which some activity was shown (FIG. 4b)” value was “above 100 μg/ml”. Besides, the minimal microbicidal concentration in assay [2] was 122.2 µg/mL; in assay [3], 15.2 µg/mL; in assay [1], greater than 150 µg/mL. In assay [2] (versus the other three antibiotic peptides), the “inhibitory activity (FIG. 4b)” value is recorded as “substantially less inhibitory”. Besides, in assay [3], the “inhibitory activity (FIG. 4a)” value was “comparable in inhibitory activity to PG3 and NP1”. Further, the “specificity for Gram-negative bacteria” value in assay [3] (from Table 2, E. coli versus L. monocytogenes and C. albicans) is “highly specific for Gram-negative bacteria”. Besides, the “inhibitory activity (FIG. 4c)” value in assay [1] is reported as “substantially noninhibitory”. For the same molecule, in assay [4], the “concentration giving complete inhibition of LAL gelation” value turned out to be 0.625 µg/mL. For the same molecule, the LAL gel formation result in assay [4] (peptide 0.16 μg/ml) was “++”; in assay [4] (peptide 0.31 μg/ml), “++”; in assay [4] (peptide 0.63 μg/ml) it was 0; in assay [4] (peptide 1.25 μg/ml), 0; in assay [4] (peptide 2.5 μg/ml), 0; in assay [4] (peptide 5.0 μg/ml), 0. For the same molecule, in assay [4], the “concentration giving complete inhibition of LAL gelation, molar” value is on record as “≈ 72 nM”. In assay [4] (intact molecule), the “effective concentration in inhibiting LPS” value lay in the range of 35 to 70 nM.
